From patent US9149532B2, “Pharmaceutical composition” (DAIICHI SANKYO COMPANY, LIMITED, priority 2007, dated 2015) come the findings set out here.

Data set [1] can be described thus: Solubility of compound (1) in aqueous solutions. The data set is classed as physicochemical.
Data set [2] in a line: Absorbability after oral administration. Type of data set: in vivo. The conditions noted are these: orally administered to a subject.

Each structure is given as a SMILES string.

With `CN1CCc2nc(C(=O)N[C@@H]3C[C@@H](C(=O)N(C)C)CC[C@@H]3NC(=O)C(=O)Nc3ccc(Cl)cn3)sc2C1` [compound (1), N^1-(5-chloropyridin-2-yl)-N^2-(4-[(dimethylamino)carbonyl]-2-{[(5-methyl-4,5,6,7-tetrahydrothiazolo[5,4-c]pyridin-2-yl)carbonyl]amino}cyclohexyl)ethanediamide], the solubility result in data set [1] (neutral pH aqueous solution (e.g., neutral buffer solution)) was “solubility decreases”; in data set [1] (strong acidic aqueous solution) it was “high solubility”. The absorbability result in data set [2] is recorded as “excellent absorbability”.
